Test [1] addresses hNurr1_RXRγFL (NURR1/RXRγ heterodimer) (Homo sapiens, UniProt P43354+P48443). Put plainly: Transactivation assay in Cos-7 cells, NURR-1-Gal4 / RXRγ, luciferase reporter. Particulars: for Emax: COS-7, read-out: hNurr1_RXRγFL Eff (%), efficacy in % relative to the reference XCT0135908 at 2·10^−5 M (=100%); for EC50: Cos-7 cells, overnight incubation; for hNurr1_RXRγFL Eff (%): efficacy in % relative to the reference XCT0135908 at 2·10^−5 M (=100%). In kind it is cell-based. The essentials:
(§1)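 Efficiency is given as a percentage of the induction produced by 2·10^−5 M XCT0135908 (100%), measured from heterodimer baseline. Read-out was luciferase after overnight exposure to compounds (10^−4–3·10^−10 M final) in Cos-7 cells transfected with NURR-1-Gal4, RXRα or RXRγ, and a Gal4 luciferase reporter.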

Test [2] concerns the target hNurr1_RXRαFL (NURR1/RXRα heterodimer) (Homo sapiens, UniProt P19793+P43354). Put plainly: Transactivation assay in Cos-7 cells, NURR-1-Gal4 / RXRα, luciferase reporter. The format is cell-based. Conditions: for Emax: COS-7, read-out: hNurr1_RXRαFL Eff (%), efficacy in % relative to the reference XCT0135908 at 2·10^−5 M (=100%); for EC50: Cos-7 cells, overnight incubation; for hNurr1_RXRαFL Eff (%): efficacy in % relative to the reference XCT0135908 at 2·10^−5 M (=100%). An outline of the steps:
as §1
Background: In a reporter assay the amount or activity of a reporter protein is the signal.

The record followed here is patent publication US20120232070A1, “Use of Indole Derivatives as Nurr-1 Activators for the Application Thereof as a Medicament for the Treatment of Parkinson's Disease” (Laboratoires Fournier SA, priority 2009, published 2012).

Where only a bound is given, the exact number is not on record here.

Chain of hNurr1_RXRαFL (NURR1/RXRα heterodimer) (P19793 whole entry, the tested form may be a part): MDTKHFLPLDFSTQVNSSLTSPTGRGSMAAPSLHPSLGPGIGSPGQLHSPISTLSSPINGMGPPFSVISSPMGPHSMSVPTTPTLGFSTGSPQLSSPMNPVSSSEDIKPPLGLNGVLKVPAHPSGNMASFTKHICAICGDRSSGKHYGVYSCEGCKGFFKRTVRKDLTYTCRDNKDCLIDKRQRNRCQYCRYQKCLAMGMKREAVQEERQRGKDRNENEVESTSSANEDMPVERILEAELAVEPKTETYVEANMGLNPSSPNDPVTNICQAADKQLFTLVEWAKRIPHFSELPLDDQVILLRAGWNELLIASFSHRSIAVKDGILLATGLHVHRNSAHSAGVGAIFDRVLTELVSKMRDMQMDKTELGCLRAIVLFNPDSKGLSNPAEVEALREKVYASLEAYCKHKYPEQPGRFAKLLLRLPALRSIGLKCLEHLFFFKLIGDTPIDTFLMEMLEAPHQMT
Chain of hNurr1_RXRαFL (NURR1/RXRα heterodimer) (P43354 328-598): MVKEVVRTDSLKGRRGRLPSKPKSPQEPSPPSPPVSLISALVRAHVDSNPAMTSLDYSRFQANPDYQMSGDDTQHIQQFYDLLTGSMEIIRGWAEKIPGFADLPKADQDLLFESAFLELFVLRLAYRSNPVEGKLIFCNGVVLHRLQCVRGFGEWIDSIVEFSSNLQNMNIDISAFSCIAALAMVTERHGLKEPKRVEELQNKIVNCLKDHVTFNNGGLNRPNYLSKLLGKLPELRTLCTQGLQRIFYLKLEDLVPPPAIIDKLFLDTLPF
Chain of hNurr1_RXRγFL (NURR1/RXRγ heterodimer) (P43354 328-598): as above
Chain of hNurr1_RXRγFL (NURR1/RXRγ heterodimer) (P48443 whole entry, the tested form may be a part): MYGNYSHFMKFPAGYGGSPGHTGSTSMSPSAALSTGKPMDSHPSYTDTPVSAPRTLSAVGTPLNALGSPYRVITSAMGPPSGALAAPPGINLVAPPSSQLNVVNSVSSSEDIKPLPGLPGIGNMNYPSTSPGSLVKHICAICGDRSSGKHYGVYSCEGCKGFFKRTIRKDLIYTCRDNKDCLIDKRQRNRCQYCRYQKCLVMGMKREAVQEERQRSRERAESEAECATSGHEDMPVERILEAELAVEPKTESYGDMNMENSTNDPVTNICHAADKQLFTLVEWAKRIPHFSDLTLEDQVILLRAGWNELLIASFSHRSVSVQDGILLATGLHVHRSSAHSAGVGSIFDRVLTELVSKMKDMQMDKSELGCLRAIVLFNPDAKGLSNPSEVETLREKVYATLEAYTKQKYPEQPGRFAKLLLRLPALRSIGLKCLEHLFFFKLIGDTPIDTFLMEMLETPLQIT

The EC50 is the concentration needed to bring the measured effect to its halfway point. A lower EC50 goes with higher potency in that assay. Regarding `COc1ccc(S(=O)(=O)n2c(Cc3ccc(C(=O)O)cc3)cc3cc(Cl)ccc32)cc1` [Example 165, 4-[[1-[4-methoxy-phenylsulfonyl]-5-(chloro)-1H-indol-2-yl]methyl]benzoic acid], in test [1], the Emax is 37% and the EC50 turned out to be 2930 nM. Further, in test [2], the Emax was 51% and the EC50 turned out to be 1140 nM.
As to `COc1cccc(S(=O)(=O)n2c(Cc3ccc(C(=O)O)cc3)cc3cc(Cl)ccc32)c1` [Example 166, 4-[[1-[3-methoxy-phenylsulfonyl]-5-(chloro)-1H-indol-2-yl]methyl]benzoic acid], in test [1], the Emax is 27% and the response was half-maximal at 1070 nM (EC50). In test [2], the Emax stood at 50% and the EC50 amounted to 681 nM.
`O=C(O)c1ccc(Cc2cc3cc(Cl)ccc3n2S(=O)(=O)c2ccc(F)cc2)cc1` [Example 167, 4-[[1-[4-fluoro-phenylsulfonyl]-5-(chloro)-1H-indol-2-yl]methyl]benzoic acid]: in test [1], the Emax worked out at 40% and the EC50 was 2440 nM. In test [2], the Emax was 48% and the EC50 is 1150 nM.
Take `CCC(C)(C)c1ccc(S(=O)(=O)n2c(Cc3ccc(C(=O)O)cc3)cc3cc(Cl)ccc32)cc1` [Example 168, 4-[[5-chloro-1-[[4-(1,1-dimethylpropyl)phenyl]sulfonyl]-1H-indol-2-yl]methyl]benzoic acid]: in test [1], the Emax came to 52% and the EC50 amounted to 501 nM. Also, in test [2], the Emax was found to be 48% and the response was half-maximal at 422 nM (EC50).
For `COc1ccc(S(=O)(=O)n2c(Cc3ccc(C(=O)O)cc3)cc3cc(Cl)ccc32)cn1` [Example 169, 4-[[5-chloro-1-[(6-methoxy-3-pyridinyl)sulfonyl]-1H-indol-2-yl]methyl]benzoic acid], in that order: 28%, 2490 nM, 46% and 1010 nM.
For the compound `CCCCCc1ccc(S(=O)(=O)n2c(Cc3ccc(C(=O)O)cc3)cc3cc(Cl)ccc32)cc1` [Example 170, 4-[[1-[4-pentyl-phenylsulfonyl]-5-(chloro)-1H-indol-2-yl]methyl]benzoic acid], the Emax in test [1] turned out to be 26%; in test [2], 42%. Also, the EC50 in test [1] was over 10000 nM; in test [2], 1740 nM.
For the compound `Cc1ccc(S(=O)(=O)n2c(Cc3ccc(C(=O)O)cc3)cc3cc(Cl)ccc32)cc1` [Example 171, 4-[[5-chloro-1-[(4-methylphenyl)sulfonyl]-1H-indol-2-yl]methyl]benzoic acid], the Emax is 31% in test [1] and 40% in test [2]. Also, the values for the EC50 in test [1] and in test [2] were 944 nM and 510 nM, respectively.
Turning to `O=C(O)c1ccc(Cc2cc3cc(Cl)ccc3n2S(=O)(=O)c2ccc(-c3cccc(F)c3)cc2)cc1` [Example 172, 4-[[1-[3′-fluoro-biphenyl-4-sulfonyl]-5-(chloro)-1H-indol-2-yl]methyl]benzoic acid], in test [1], the Emax turned out to be 47% and the EC50 was found to be 567 nM. Besides, in test [2], the Emax was 82% and the EC50 turned out to be 117 nM.
As for `CC1(C)CCc2ccc(S(=O)(=O)n3c(Cc4ccc(C(=O)O)cc4)cc4cc(Cl)ccc43)cc2O1` [Example 173, 4-[[5-chloro-1-[(3,4-dihydro-2,2-dimethyl-2H-1-benzopyran-7-yl)sulfonyl]-1H-indol-2-yl]methyl]-benzoic acid], in test [1], the Emax was determined as 73% and a half-maximal response (EC50) required 498 nM. Moreover, in test [2], the Emax stood at 78% and the EC50 was 145 nM.
Take `O=C(O)c1ccc(Cc2cc3cc(Cl)ccc3n2S(=O)(=O)c2ccc3c(c2)OCO3)cc1` [Example 174, 4-[[1-(1.3-benzodioxol-5-ylsulfonyl)-5-chloro-1H-indol-2-yl]methyl]benzoic acid]: in test [1], the Emax is 37% and the EC50 worked out at 813 nM. Also, in test [2], the Emax was 47% and the EC50 amounted to 593 nM.
The corresponding values for `O=C(O)c1ccc(Cc2cc3cc(Cl)ccc3n2S(=O)(=O)c2ccc(Oc3ccccc3)nc2)cc1` [Example 175, 4-[[5-chloro-1-[(6-phenoxy-3-pyridinyl)sulfonyl]-1H-indol-2-yl]methyl]benzoic acid] are 14%, over 10000 nM, 38% and 331 nM.
Consider `CCS(=O)(=O)n1c(Cc2ccc(C(=O)O)cc2)cc2cc(Cl)ccc21` [Example 176, 4-[[5-chloro-1-(ethylsulfonyl)-1H-indol-2-yl]methyl]benzoic acid], for which, in test [1], the Emax was found to be 21% and the EC50 is over 10000 nM. In test [2], the Emax was determined as 33% and a half-maximal effect (EC50) was put at 3390 nM.
The corresponding values for `O=C(O)c1ccc(Cc2cc3cc(Cl)ccc3n2S(=O)(=O)c2cc3ccccc3o2)cc1` [Example 177, 4-[[1-[benzofuran-2-sulfonyl]-5-(chloro)-1H-indol-2-yl]methyl]benzoic acid] are 17%, over 10000 nM, 39% and over 10000 nM.
For `O=C(O)c1ccc(Cc2cc3cc(Cl)ccc3n2S(=O)(=O)c2ccc3c(c2)OCCCO3)cc1` [Example 178], in that order: 36%, 1200 nM, 45% and 1030 nM.
On to `O=C(O)c1ccc(Cc2cc3cc(Cl)ccc3n2S(=O)(=O)c2ccc(-c3ccc(F)cc3)cc2)cc1` [Example 179, 4-[[1-[4′-fluoro-biphenyl-4-sulfonyl]-5-(chloro)-1H-indol-2-yl]methyl]benzoic acid], for which the Emax was 26% in test [1] and 62% in test [2]. Moreover, the EC50 is over 10000 nM in test [1] and 331 nM in test [2].
For `CS(=O)(=O)n1c(Cc2ccc(C(=O)O)cc2)cc2cc(Cl)ccc21` [Example 181, 4-[[5-chloro-1-(methylsulfonyl)-1H-indol-2-yl]methyl]benzoic acid], in test [1], the Emax was determined as 152% and the EC50 worked out at 4070 nM. For the same compound, in test [2], the Emax is 111% and the EC50 worked out at 1360 nM.
Take `COC(=O)c1ccc(Cc2cc3cc(Cl)ccc3n2S(=O)(=O)c2ccc3c(c2)C(C)(C)CO3)cc1` [Example 182]: in test [1], the EC50 came out at 154 nM and the “hNurr1_RXRγFL Eff (%)” value was found to be 85%. Besides, in test [2], a half-maximal response (EC50) required 55 nM and the “hNurr1_RXRαFL Eff (%)” value is given as 83%.
The corresponding values for `CC1(C)COc2ccc(S(=O)(=O)n3c(Cc4ccc(C(=O)O)cc4)cc4cc(Cl)ccc43)cc21` [Example 183] are 95 nM, 91%, 47 nM and 80%.
Consider `Cc1c(Cc2cccc(C(=O)O)c2)n(S(=O)(=O)c2cccc(C(C)(C)C)c2)c2ccc(C(F)(F)F)cc12` [Example 186, 3-[[1-[[3-(1,1-dimethylethyl)phenyl]sulfonyl]-3-methyl-5-(trifluoromethyl)-1H-indol-2-yl]methyl]-benzoic acid], for which, in test [1], the Emax came to 68% and the EC50 is 288 nM. Moreover, in test [2], the Emax was 93% and the response was half-maximal at 124 nM (EC50).
For `Cc1c(Cc2ccc(C(=O)O)cc2)n(S(=O)(=O)c2cccc(C(C)(C)C)c2)c2ccc(C(F)(F)F)cc12` [Example 189, 4-[[1-[[3-(1,1-dimethylethyl)phenyl]sulfonyl]-3-methyl-5-(trifluoromethyl)-1H-indol-2-yl]methyl]-benzoic acid], in that order: 90%, 263 nM, 83% and 120 nM.
Regarding `COC(=O)c1ccc(Cc2cc3cc(C(F)(F)F)ccc3n2S(=O)(=O)c2cccc(C(C)(C)C)c2)s1` [Example 190, 5-[[1-[[3-(1,1-dimethylethyl)-phenyl]sulfonyl]-5-trifluoromethyl-1H-indol-2-yl]-methyl]-thiophene-2-carboxylic acid, methyl ester], in test [1], the Emax was found to be 107% and a half-maximal effect (EC50) was put at 13 nM. In test [2], the Emax came out at 97% and the EC50 amounted to 0.2 nM.
Turning to `COC(=O)c1cc(Cc2cc3cc(C(F)(F)F)ccc3n2S(=O)(=O)c2cccc(C(C)(C)C)c2)cn1C` [Example 192, 4-{[1-[[3-(1,1-dimethylethyl)-phenyl]sulfonyl]-5-trifluoromethyl-1H-indol-2-yl]-methyl}-1-methyl-1H-pyrrol-2-yl-carboxylic acid, methyl ester], in test [1], the Emax came to 58% and the EC50 was over 10000 nM. In test [2], the Emax was found to be 85% and the midpoint of the response, the EC50, lay at 1120 nM.
Take `COC(=O)c1ccc(Cc2cc3ccccc3n2S(=O)(=O)c2cccc(C(C)(C)C)c2)cc1` [Example 194, 4-[[1-[[3-(1,1-dimethylethyl)phenyl]sulfonyl]-1H-indol-2-yl]methyl]-benzoic acid, methyl ester]: in test [1], the Emax came out at 36% and the response was half-maximal at 316 nM (EC50). Also, in test [2], the Emax turned out to be 42% and a half-maximal response (EC50) required 344 nM.
For `CC(C)(C)c1cccc(S(=O)(=O)n2c(Cc3ccc(C(=O)O)cc3)cc3ccccc32)c1` [Example 195, 4-[[1-[[3-(1,1-dimethylethyl)phenyl]sulfonyl]-1H-indol-2-yl]methyl]-benzoic acid], in that order: 56%, 1170 nM, 57% and 629 nM.
